What all share (type): cell-based, human
The test system of data set [1] is TRKB knockdown ΔK280 TauRD-DsRed SH-SY5Y cells. Briefly: TRKB RNA interference: TRKB protein level and neurite outgrowth. Conditions: 10 μM. The procedure:
ΔK280 TauRD-DsRed SH-SY5Y cells were plated in the presence of 10 μM retinoid acid (RA; Sigma-Aldrich) to promote neuronal differentiation. The next day, cells were added with congo red or ZN/VB compounds (2–10 μM) for 8 h pretreatment, followed by inducing ΔK280 TauRD-DsRed expression with doxycycline (2 μg/mL). On day 8, cell nuclei were stained with Hoechst 33342 (0.1 μg/mL; Thermo Scientific), and cell images acquired using ImageXpress Micro Confocal High-Content Imaging System (Molecular Devices, San Jose, CA, USA) with DAPI (4′,6-diamidino-2-phenylindole, for nuclei) and TRITC (tetramethylrhodamine, for DsRed) fluorescence filter sets. To detect ROS changes, 10 μM compound-treated cells were stained with Hoechst 33342 and 2′,7′-dichlorodihydrofluorescein diacetate (H2DCFDA, 10 μM) fluorescein (Invitrogen, Carlsbad, CA, USA), and cell images captured using DAPI and FITC (fluorescein isothiocyanate, for DCF) filters. […] The nuclei and neurite images were acquired with DAPI and TRITC fluorescence filters, respectively. […]
Cells were collected and protein extracted as described. […] Protein signals were detected with chemiluminescent substrate (Millipore) using the ImageQuant™ LAS 4000 imager and analysis software (GE Healthcare, UK). […]

The next data set deals with caspase-6. Briefly: Caspase-6 activity assay in cell lysates. The settings on record: uninduced = 100%, induced untreated 110.5%. On the procedure:
After being compounds-treated and RA-differentiated, cells were collected for caspase-1/6 and AChE activity measurements. Cells were lysed in lysis buffer with repeated freeze/thaw cycles and protein concentration in cell lysates quantitated. Types of substrates applied to detect each caspase’s activity were: YVAD-AFC for caspase-1 and VEID-AFC for caspase-6 (BioVision, Milpitas, CA, USA). The reaction mixtures were incubated for 1.5 h at 37 °C according to the manufacturer’s instructions. The fluorescence intensities with excitation/emission wavelengths at 400/505 nm were recorded by a FLx800 microplate fluorescence reader (BioTek Instruments). An AChE activity assay was performed according to the manufacturer’s instructions (Sigma-Aldrich), as described in the Ref. [28]. The mixture was incubated for 2–10 min at room temperature, and absorbance at 412 nm wavelength was measured by Multiskan™ GO Microplate Spectrophotometer (Thermo Scientific).

For data set [2], the system named is ΔK280 TauRD-DsRed SH-SY5Y cells. The data set is described as follows: High-content neurite outgrowth analysis (TUBB3 stain). Conditions: 10 μM. The procedure:
(§1) ΔK280 TauRD-DsRed SH-SY5Y cells were plated in the presence of 10 μM retinoid acid (RA; Sigma-Aldrich) to promote neuronal differentiation. The next day, cells were added with congo red or ZN/VB compounds (2–10 μM) for 8 h pretreatment, followed by inducing ΔK280 TauRD-DsRed expression with doxycycline (2 μg/mL). On day 8, cell nuclei were stained with Hoechst 33342 (0.1 μg/mL; Thermo Scientific), and cell images acquired using ImageXpress Micro Confocal High-Content Imaging System (Molecular Devices, San Jose, CA, USA) with DAPI (4′,6-diamidino-2-phenylindole, for nuclei) and TRITC (tetramethylrhodamine, for DsRed) fluorescence filter sets. To detect ROS changes, 10 μM compound-treated cells were stained with Hoechst 33342 and 2′,7′-dichlorodihydrofluorescein diacetate (H2DCFDA, 10 μM) fluorescein (Invitrogen, Carlsbad, CA, USA), and cell images captured using DAPI and FITC (fluorescein isothiocyanate, for DCF) filters. For assessing differential neurite outgrowth, 10 μM compound-treated cells were fixed (paraformaldehyde, 4%), permeabilized (Triton X-100, 0.3%), and stained with class III β-tubulin (TUBB3, 1:1000) primary antibody (#802001, BioLegend, San Diego, CA, USA), followed by donkey anti-rabbit Alexa Fluor® 555 secondary antibody (1:1000; #A-31572, Invitrogen) and DAPI (0.1 μg/mL; Sigma-Aldrich) stains. The nuclei and neurite images were acquired with DAPI and TRITC fluorescence filters, respectively. All analyses of images were performed using MetaXpress software (Molecular Device).

Data set [3] can be described thus: Cell number / cell survival in induced ΔK280 TauRD-DsRed SH-SY5Y cells (high-content). Conditions: human; induced SH-SY5Y cells expressing ΔK280 TauRD-DsRed for 6 days, 2–10 μM tested; read-out: IC50 cytotoxicity based on cell number. On the procedure: as §1

On to `O=C(/C=C/c1ccccc1O)c1c(O)c2ccccc2oc1=O` [ZN-015, (E)-4-hydroxy-3-(3-(2-hydroxyphenyl)acryloyl)-2H-chromen-2-one], for which the neurite process in data set [1] (TRKB knockdown) was determined as 2.17; in data set [1] (scrambled shRNA) it was 2.35; in data set [2] (induced untreated 2.07), 2.34. For the same compound, the caspase-6 activity with caspase-6 was found to be 99.8%. The same compound registered a neurite branch in data set [2] (induced untreated 0.74) of 0.92. The compound also displayed a neurite length in data set [2] (induced untreated 30.6 μm) of 40.7 μm. For the same compound, the IC50 (usually the concentration needed to halve the response being measured) at 6 days in data set [3] came out at 16 µM.

(Values after paper PMC9953660, “Using ΔK280 TauRD Folding Reporter Cells to Screen TRKB Agonists as Alzheimer’s Disease Treatment Strategy” (Biomolecules, 2023).)
